Test results taken from ChEMBL document CHEMBL4411307, “N,N'-diaryl-bishydrazones in a biphenyl platform: Broad spectrum antifungal agents” (Eur J Med Chem, 2019).
Converted amounts (≈) assume the structure as drawn. The source made the active and inactive calls. The calls are words filed in the database; no cut-off is given here.

Assays:
Listeria monocytogenes = assay: Antibacterial activity against Listeria monocytogenes; type: functional, organism-based
Staphylococcus aureus = assay: Antibacterial activity against methicillin-resistant Staphylococcus aureus; type: functional, organism-based
Enterococcus = assay: Antibacterial activity against vancomycin-resistant Enterococcus; type: functional, organism-based
Candida albicans [1] = assay: Antifungal activity against fluconazole/ITC-resistant Candida albicans ATCC 10231 measured after 48 hrs by CLSI M27-A3 protocol based method; type: functional; conditions: ATCC 10231, 48 h
Candida albicans [2] = assay: Antifungal activity against fluconazole/ITC-resistant Candida albicans ATCC 64124 measured after 48 hrs by CLSI M27-A3 protocol based method; type: functional; conditions: ATCC 64124, 48 h
Candida albicans [3] = assay: Antifungal activity against fluconazole/ITC-susceptible Candida albicans ATCC MYA-2876 measured after 48 hrs by CLSI M27-A3 protocol based method; type: functional; conditions: ATCC MYA-2876, 48 h
Candida albicans [4] = assay: Antifungal activity against fluconazole/ITC-resistant Candida albicans ATCC 90819 measured after 48 hrs by CLSI M27-A3 protocol based method; type: functional; conditions: ATCC 90819, 48 h
Candida albicans [5] = assay: Antifungal activity against fluconazole/ITC-susceptible Candida albicans ATCC MYA-2310 measured after 48 hrs by CLSI M27-A3 protocol based method; type: functional; conditions: ATCC MYA-2310, 48 h
Candida albicans [6] = assay: Antifungal activity against fluconazole/ITC-resistant Candida albicans ATCC MYA-1237 measured after 48 hrs by CLSI M27-A3 protocol based method; type: functional; conditions: ATCC MYA-1237, 48 h
Candida albicans [7] = assay: Antifungal activity against fluconazole/ITC-resistant Candida albicans ATCC MYA-1003 measured after 48 hrs by CLSI M27-A3 protocol based method; type: functional; conditions: ATCC MYA-1003, 48 h
Nakaseomyces glabratus = assay: Antifungal activity against Candida glabrata ATCC 2001 measured after 48 hrs by CLSI M27-A3 protocol based method; type: functional; conditions: CBS 138, 48 h
Pichia kudriavzevii = assay: Antifungal activity against Candida krusei ATCC 6258 measured after 48 hrs by CLSI M27-A3 protocol based method; type: functional; conditions: ATCC 6258, 48 h
Candida parapsilosis = assay: Antifungal activity against Candida parapsilosis ATCC 22019 measured after 48 hrs by CLSI M27-A3 protocol based method; type: functional; conditions: Lodderomyces parapsilosis, ATCC 22019, 48 h
Aspergillus flavus = assay: Antifungal activity against Aspergillus flavus ATCC MYA-3631 measured after 48 hrs by CLSI M38-A2 protocol based method; type: functional; conditions: ATCC MYA-3631, 48 h
Aspergillus nidulans = assay: Antifungal activity against Aspergillus nidulans ATCC 38163 measured after 48 hrs by CLSI M38-A2 protocol based method; type: functional; conditions: ATCC 38163, 48 h
Aspergillus terreus = assay: Antifungal activity against Aspergillus terreus ATCC MYA-3633 measured after 48 hrs by CLSI M38-A2 protocol based method; type: functional; conditions: ATCC MYA-3633, 48 h
A549 = assay: Cytotoxicity against human A549 cells after 24 hrs by resazurin based assay; type: cell-based; conditions: a549, 24 h
BEAS-2B = assay: Cytotoxicity against human BEAS2B cells after 24 hrs by resazurin based assay; type: cell-based
[8] = Selectivity index, ratio of CC50 for human A549 cells to MIC for fluconazole/ITC-resistant Candida albicans ATCC 10231; type: toxicity; conditions: read-out: Selectivity Index
[9] = Selectivity index, ratio of CC50 for human A549 cells to MIC for fluconazole/ITC-resistant Candida albicans ATCC 64124; type: toxicity; conditions: read-out: Selectivity Index
[10] = Selectivity index, ratio of CC50 for human A549 cells to MIC for fluconazole/ITC-susceptible Candida albicans ATCC MYA-2876; type: toxicity; conditions: read-out: Selectivity Index
[11] = Selectivity index, ratio of CC50 for human A549 cells to MIC for fluconazole/ITC-resistant Candida albicans ATCC 90819; type: toxicity; conditions: read-out: Selectivity Index
[12] = Selectivity index, ratio of CC50 for human A549 cells to MIC for fluconazole/ITC-susceptible Candida albicans ATCC MYA-2310; type: toxicity; conditions: read-out: Selectivity Index
[13] = Selectivity index, ratio of CC50 for human A549 cells to MIC for fluconazole/ITC-resistant Candida albicans ATCC MYA-1237; type: toxicity; conditions: read-out: Selectivity Index
[14] = Selectivity index, ratio of CC50 for human A549 cells to MIC for fluconazole/ITC-resistant Candida albicans ATCC MYA-1003; type: toxicity; conditions: read-out: Selectivity Index
[15] = Selectivity index, ratio of CC50 for human A549 cells to MIC for Candida glabrata ATCC 2001; type: toxicity; conditions: read-out: Selectivity Index
[16] = Selectivity index, ratio of CC50 for human A549 cells to MIC for Candida krusei ATCC 6258; type: toxicity; conditions: read-out: Selectivity Index
[17] = Selectivity index, ratio of CC50 for human A549 cells to MIC for Candida parapsilosis ATCC 22019; type: toxicity; conditions: read-out: Selectivity Index
[18] = Selectivity index, ratio of CC50 for human A549 cells to MIC for Aspergillus flavus ATCC MYA-3631; type: toxicity; conditions: read-out: Selectivity Index
[19] = Selectivity index, ratio of CC50 for human A549 cells to MIC for Aspergillus nidulans ATCC 38163; type: toxicity; conditions: read-out: Selectivity Index
[20] = Selectivity index, ratio of CC50 for human A549 cells to MIC for Aspergillus terreus ATCC MYA-3633; type: toxicity; conditions: read-out: Selectivity Index
[21] = Hemolytic activity in mouse RBC at […] after 1 hr relative to control; type: ADME, cell-based, Erythrocyte; conditions: red blood cells (erythrocytes), read-out: Activity; further: tested at 0.48 µg/mL
[22] = Hemolytic activity in mouse RBC at […] ug/ml after 1 hr relative to control; type: ADME, cell-based, Erythrocyte; conditions: red blood cells (erythrocytes), read-out: Activity
[23] = Hemolytic activity in mouse RBC at 1.95 ug/ml after 1 hr relative to control; type: ADME, cell-based, Erythrocyte; conditions: red blood cells (erythrocytes), read-out: Activity
[24] = Hemolytic activity in mouse RBC at 3.9 ug/ml after 1 hr relative to control; type: ADME, cell-based, Erythrocyte; conditions: red blood cells (erythrocytes), read-out: Activity
[25] = Hemolytic activity in mouse RBC at 7.8 ug/ml after 1 hr relative to control; type: ADME, cell-based, Erythrocyte; conditions: red blood cells (erythrocytes), read-out: Activity
[26] = Hemolytic activity in mouse RBC at 31.3 ug/ml after 1 hr relative to control; type: ADME, cell-based, Erythrocyte; conditions: red blood cells (erythrocytes), read-out: Activity
[27] = Hemolytic activity in mouse RBC at 62.5 ug/ml after 1 hr relative to control; type: ADME, cell-based, Erythrocyte; conditions: red blood cells (erythrocytes), read-out: Activity
[28] = Selectivity index, ratio of compound concentration showing <20 to <25% hemolysis in mouse RBC to MIC for fluconazole/ITC-resistant Candida albicans ATCC 10231; type: toxicity; conditions: red blood cells (erythrocytes), read-out: Selectivity Index
[29] = Selectivity index, ratio of compound concentration showing <20 to <25% hemolysis in mouse RBC to MIC for fluconazole/ITC-resistant Candida albicans ATCC 64124; type: toxicity; conditions: red blood cells (erythrocytes), read-out: Selectivity Index
[30] = Selectivity index, ratio of compound concentration showing <20 to <25% hemolysis in mouse RBC to MIC for fluconazole/ITC-susceptible Candida albicans ATCC MYA-2876; type: toxicity; conditions: red blood cells (erythrocytes), read-out: Selectivity Index
[31] = Selectivity index, ratio of compound concentration showing <20 to <25% hemolysis in mouse RBC to MIC for fluconazole/ITC-resistant Candida albicans ATCC 90819; type: toxicity; conditions: red blood cells (erythrocytes), read-out: Selectivity Index
[32] = Selectivity index, ratio of compound concentration showing <20 to <25% hemolysis in mouse RBC to MIC for fluconazole/ITC-susceptible Candida albicans ATCC MYA-2310; type: toxicity; conditions: red blood cells (erythrocytes), read-out: Selectivity Index
[33] = Selectivity index, ratio of compound concentration showing <20 to <25% hemolysis in mouse RBC to MIC for fluconazole/ITC-resistant Candida albicans ATCC MYA-1237; type: toxicity; conditions: red blood cells (erythrocytes), read-out: Selectivity Index
[34] = Selectivity index, ratio of compound concentration showing <20 to <25% hemolysis in mouse RBC to MIC for fluconazole/ITC-resistant Candida albicans ATCC MYA-1003; type: toxicity; conditions: red blood cells (erythrocytes), read-out: Selectivity Index
[35] = Selectivity index, ratio of compound concentration showing <20 to <25% hemolysis in mouse RBC to MIC for Candida glabrata ATCC 2001; type: toxicity; conditions: red blood cells (erythrocytes), read-out: Selectivity Index
[36] = Selectivity index, ratio of compound concentration showing <20 to <25% hemolysis in mouse RBC to MIC for Candida krusei ATCC 6258; type: toxicity; conditions: red blood cells (erythrocytes), read-out: Selectivity Index
[37] = Selectivity index, ratio of compound concentration showing <20 to <25% hemolysis in mouse RBC to MIC for Candida parapsilosis ATCC 22019; type: toxicity; conditions: red blood cells (erythrocytes), read-out: Selectivity Index
[38] = Selectivity index, ratio of compound concentration showing <20 to <25% hemolysis in mouse RBC to MIC for Aspergillus flavus ATCC MYA-3631; type: toxicity; conditions: red blood cells (erythrocytes), read-out: Selectivity Index
[39] = Selectivity index, ratio of compound concentration showing <20 to <25% hemolysis in mouse RBC to MIC for Aspergillus nidulans ATCC 38163; type: toxicity; conditions: red blood cells (erythrocytes), read-out: Selectivity Index
[40] = Selectivity index, ratio of compound concentration showing <20 to <25% hemolysis in mouse RBC to MIC for Aspergillus terreus ATCC MYA-3633; type: toxicity; conditions: red blood cells (erythrocytes), read-out: Selectivity Index

Question: With `C(=N\Nc1ccccc1)/c1ccc(-c2ccc(/C=N/Nc3ccccc3)cc2)cc1` as the compound, how does the Activity (Listeria monocytogenes) read?
Answer: inactive

Question: And the Activity (Staphylococcus aureus)?
Answer: inactive

Question: What about the Activity (Enterococcus) of the same compound?
Answer: inactive

Question: What about the MIC (Candida albicans [1]) of the same compound?
Answer: 7.8 µg/mL (≈ 20 µM)

Question: And the MIC (Candida albicans [2])?
Answer: > 31.3 µg/mL

Question: And the MIC (Candida albicans [3])?
Answer: > 31.3 µg/mL

Question: What about the MIC (Candida albicans [4]) of the same compound?
Answer: 31.3 µg/mL (≈ 80.2 µM)

Question: And the MIC (Candida albicans [5])?
Answer: > 31.3 µg/mL

Question: What about the MIC (Candida albicans [6]) of the same compound?
Answer: > 31.3 µg/mL

Question: And the MIC (Candida albicans [7])?
Answer: > 31.3 µg/mL

Question: And the MIC (Nakaseomyces glabratus)?
Answer: > 31.3 µg/mL

Question: And the MIC (Pichia kudriavzevii)?
Answer: > 31.3 µg/mL

Question: What about the MIC (Candida parapsilosis) of the same compound?
Answer: > 31.3 µg/mL

Question: What about the MIC (Aspergillus flavus) of the same compound?
Answer: 3.9 µg/mL (≈ 9.99 µM)

Question: What about the MIC (Aspergillus nidulans) of the same compound?
Answer: 1.95 µg/mL (≈ 4.99 µM)

Question: And the MIC (Aspergillus terreus)?
Answer: 15.6 µg/mL (≈ 39.9 µM)

Question: What about the CC50 (A549) of the same compound?
Answer: 17.7 µg/mL (≈ 45.3 µM)

Question: What about the CC50 (BEAS-2B) of the same compound?
Answer: 11 µg/mL (≈ 28.2 µM)

Question: What about the selectivity ratio [8] of the same compound?
Answer: 2.3

Question: What about the selectivity ratio [9] of the same compound?
Answer: 0.6

Question: What about the selectivity ratio [10] of the same compound?
Answer: 0.6

Question: And the selectivity ratio [11]?
Answer: 0.6

Question: What about the selectivity ratio [12] of the same compound?
Answer: 0.6

Question: And the selectivity ratio [13]?
Answer: 0.6

Question: What about the selectivity ratio [14] of the same compound?
Answer: 0.6

Question: And the selectivity ratio [15]?
Answer: 0.6

Question: And the selectivity ratio [16]?
Answer: 0.6

Question: And the selectivity ratio [17]?
Answer: 0.6

Question: And the selectivity ratio [18]?
Answer: 4.5

Question: What about the selectivity ratio [19] of the same compound?
Answer: 9.1

Question: And the selectivity ratio [20]?
Answer: 1.1

Question: What about the hemolysis at 1 h, […] [21] of the same compound?
Answer: 2%

Question: And the hemolysis at 1 h, 15.6 ug/ml ([22]; at 15.6 µg/mL)?
Answer: 14.1%

Question: And the hemolysis at 1 h, 0.975 ug/ml [22]?
Answer: 0.1%

Question: What about the hemolysis at 1 h, 1.95 ug/ml [23] of the same compound?
Answer: 3.7%

Question: What about the hemolysis at 1 h, 3.9 ug/ml [24] of the same compound?
Answer: 3.4%

Question: What about the hemolysis at 1 h, 7.8 ug/ml [25] of the same compound?
Answer: 2.9%

Question: What about the hemolysis at 1 h, 31.3 ug/ml [26] of the same compound?
Answer: 10.8%

Question: What about the hemolysis at 1 h, 62.5 ug/ml [27] of the same compound?
Answer: 17.2%

Question: And the selectivity ratio [28]?
Answer: 1 to 32

Question: What about the selectivity ratio [29] of the same compound?
Answer: 1 to 32

Question: What about the selectivity ratio [30] of the same compound?
Answer: 1 to 32

Question: What about the selectivity ratio [31] of the same compound?
Answer: 1 to 32

Question: And the selectivity ratio [32]?
Answer: 1 to 32

Question: What about the selectivity ratio [33] of the same compound?
Answer: 1 to 32

Question: And the selectivity ratio [34]?
Answer: 1 to 32

Question: And the selectivity ratio [35]?
Answer: 1 to 32

Question: And the selectivity ratio [36]?
Answer: 1 to 32

Question: What about the selectivity ratio [37] of the same compound?
Answer: 1 to 32

Question: And the selectivity ratio [38]?
Answer: 1 to 32

Question: What about the selectivity ratio [39] of the same compound?
Answer: 1 to 32

Question: And the selectivity ratio [40]?
Answer: 1 to 32
